The record followed here is paper PMC317295 (BMC Pharmacology, 2003).

The experiment addresses β2-adrenergic receptor (β2AR) (Homo sapiens, UniProt P07550). The experiment in a line: radioligand saturation binding on membranes.

Sequence of β2-adrenergic receptor (β2AR) (P07550 whole entry): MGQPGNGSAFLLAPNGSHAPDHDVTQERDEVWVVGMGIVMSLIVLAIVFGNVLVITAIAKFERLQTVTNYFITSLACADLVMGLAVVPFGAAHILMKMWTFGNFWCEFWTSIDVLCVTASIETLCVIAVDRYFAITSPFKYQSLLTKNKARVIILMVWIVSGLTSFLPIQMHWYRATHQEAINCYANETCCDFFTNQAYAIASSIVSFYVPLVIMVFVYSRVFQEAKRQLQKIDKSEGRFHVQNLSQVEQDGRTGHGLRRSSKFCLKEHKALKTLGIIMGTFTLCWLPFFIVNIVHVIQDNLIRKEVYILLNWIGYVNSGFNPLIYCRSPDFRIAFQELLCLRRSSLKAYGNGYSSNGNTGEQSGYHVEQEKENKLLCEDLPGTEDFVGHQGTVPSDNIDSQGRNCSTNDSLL

The Kd is the free concentration of one partner at which half of the binding sites on the other are occupied at equilibrium, for simple one-to-one binding. In the case of `CCCc1ccccc1OCC(O)CNC(C)C` (stereo not shown) [[3H]dihydroalprenolol], the Kd is 0.42 ± 0.1 nM.
